Data published in ChEMBL document CHEMBL1201862, “PubChem BioAssay data set” (2004).
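Exposure lasted 48 hours, with cells grown in 96-well plates and compounds tested at five concentrations. GI50 is the concentration that inhibits growth by half.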 Calls of active or inactive are those of the source. Cut-off read from the data, not from the text of the source: active = GI50 up to about 1.1 µM and inactive = higher.

Legend:
Assay in all cases: NCI-60 cell line screen, 48 h
HT-29 = tested on: HT-29
NCI-H226 = tested on: NCI-H226
CAKI-1 = tested on: CAKI-1
NCI-H23 = tested on: NCI-H23
BT-549 = tested on: BT-549
NCI-H460 = tested on: NCI-H460
HCT-116 = tested on: HCT-116
SW-620 = tested on: SW-620
MOLT-4 = tested on: MOLT-4
HCC 2998 = tested on: HCC 2998
IGROV-1 = tested on: IGROV-1
CCRF-CEM = tested on: CCRF-CEM
UACC-62 = tested on: UACC-62
SK-MEL-2 = tested on: SK-MEL-2
UO-31 = tested on: UO-31
K562 = tested on: K562
HCT-15 = tested on: HCT-15
M14 = tested on: M14

| Structure (SMILES) | GI50 (HT-29) | GI50 (NCI-H226) | GI50 (CAKI-1) | GI50 (NCI-H23) | GI50 (BT-549) | GI50 (NCI-H460) | GI50 (HCT-116) | GI50 (SW-620) | GI50 (MOLT-4) | GI50 (HCC 2998) | GI50 (IGROV-1) | GI50 (CCRF-CEM) | GI50 (UACC-62) | GI50 (SK-MEL-2) | GI50 (UO-31) | GI50 (K562) | GI50 (HCT-15) | GI50 (M14) |
| --- | --- | --- | --- | --- | --- | --- | --- | --- | --- | --- | --- | --- | --- | --- | --- | --- | --- | --- |
| Oc1ccc(O)c(CNc2ccccc2)c1 | 32.2 µM (inactive) | 26.7 µM (inactive) | 6.89 µM (inactive) | 10.2 µM (inactive) | 7.93 µM (inactive) | 20.8 µM (inactive) | 7.26 µM (inactive) | 13.6 µM (inactive) | 2.26 µM (inactive) | 26.2 µM (inactive) | 8.53 µM (inactive) | 2.37 µM (inactive) | 13.3 µM (inactive) | 24.2 µM (inactive) | 10.7 µM (inactive) | 1.65 µM (inactive) | 10.3 µM | 15.7 µM (inactive) |
| OC1C[C@H](c2ccccc2)C2(C(O)c3ccccc3C2O)[C@@H](c2ccccc2)C1 (stereo partly drawn) | > 100 µM (inactive) | > 100 µM (inactive) | > 100 µM (inactive) | > 100 µM (inactive) | > 100 µM (inactive) | > 100 µM (inactive) | > 100 µM (inactive) | > 100 µM (inactive) | > 100 µM (inactive) | > 100 µM (inactive) | > 100 µM (inactive) | 99.1 µM (inactive) | > 100 µM (inactive) | > 100 µM (inactive) | > 100 µM (inactive) | > 100 µM (inactive) | > 100 µM | > 100 µM (inactive) |
| c1cc(Sc2nc(Sc3ccncc3)nc(Sc3ccncc3)n2)ccn1 | > 100 µM (inactive) | > 100 µM (inactive) | > 100 µM (inactive) | > 100 µM (inactive) | > 100 µM (inactive) | > 100 µM (inactive) | > 100 µM (inactive) | > 100 µM (inactive) | > 100 µM (inactive) | > 100 µM (inactive) | > 100 µM (inactive) | > 100 µM (inactive) | > 100 µM (inactive) | > 100 µM (inactive) | > 100 µM (inactive) | > 100 µM (inactive) | > 100 µM | > 100 µM (inactive) |
| COc1ccc2c(c1)C(OC)C1c3c(cc4c(c3-2)OCO4)CCN1C (stereo not drawn) | 2.21 µM (inactive) | 2.39 µM (inactive) | 2.12 µM (inactive) | 2.8 µM (inactive) | 2.28 µM (inactive) | 2.82 µM (inactive) | 2.1 µM (inactive) | 2.32 µM (inactive) | 1.95 µM (inactive) | 3.4 µM (inactive) | 2.88 µM (inactive) | 2.24 µM (inactive) | 2.11 µM (inactive) | 2.73 µM (inactive) | 1.67 µM (inactive) | 3.63 µM (inactive) | 2.13 µM | 2.64 µM (inactive) |
| CO[C@H]1O[C@@H]2CO[C@@H](c3ccccc3)O[C@H]2[C@@H]2C/C=C\CCC[C@@]12O | 17.9 µM (inactive) | 20.7 µM (inactive) | 33.4 µM (inactive) | 24 µM (inactive) | 20.2 µM (inactive) | 16.8 µM (inactive) | 16.1 µM (inactive) | 26.9 µM (inactive) | 17 µM (inactive) | 12.7 µM (inactive) | 30 µM (inactive) | 31 µM (inactive) | 15.7 µM (inactive) | 16 µM (inactive) | 30.8 µM (inactive) | 20 µM (inactive) | 24.4 µM | 22.4 µM (inactive) |
| COc1cc([C@@H]2c3cc4c(cc3[C@H](OC3OC5COC(C(C)C)OC5C(O)C3O)C3COC(=O)[C@@H]32)OCO4)cc(OC)c1OC (stereo partly drawn) | 2.54 µM (inactive) | 2.96 µM (inactive) | 4.15 µM (inactive) | 4.55 µM (inactive) | 5.52 µM (inactive) | 2.34 µM (inactive) | 2.83 µM (inactive) | 4.48 µM (inactive) | 4.84 µM (inactive) | 5.16 µM (inactive) | 4.17 µM (inactive) | 3.49 µM (inactive) | 4.7 µM (inactive) | 8.36 µM (inactive) | 11.1 µM (inactive) | 3.19 µM (inactive) | 4.49 µM | 5.24 µM (inactive) |
| Cc1ccc(NC(=O)/C=C/c2ccccc2)c(C)c1 | > 100 µM (inactive) | 13.9 µM (inactive) | > 100 µM (inactive) | > 100 µM (inactive) | > 100 µM (inactive) | > 100 µM (inactive) | > 100 µM (inactive) | > 100 µM (inactive) | > 100 µM (inactive) | > 100 µM (inactive) |  | > 100 µM (inactive) | > 100 µM (inactive) | > 100 µM (inactive) |  | > 100 µM (inactive) | > 100 µM | > 100 µM (inactive) |
| COc1ccc(-c2nc(-c3cc4ccccc4oc3=O)cs2)cc1 | 95.9 µM (inactive) | > 100 µM (inactive) | > 100 µM (inactive) |  | > 100 µM (inactive) | 59.2 µM (inactive) | 37.8 µM (inactive) | > 100 µM (inactive) | > 100 µM (inactive) | 77.8 µM (inactive) | 86.1 µM (inactive) | > 100 µM (inactive) | > 100 µM (inactive) | > 100 µM (inactive) | 35.7 µM (inactive) | > 100 µM (inactive) | > 100 µM | > 100 µM (inactive) |
| O=C(CSc1nc2ccc([N+](=O)[O-])cc2s1)c1ccc2ccccc2c1 | > 100 µM (inactive) | > 100 µM (inactive) | > 100 µM (inactive) | 33 µM (inactive) | > 100 µM (inactive) | > 100 µM (inactive) | > 100 µM (inactive) | > 100 µM (inactive) | 74.6 µM (inactive) | > 100 µM (inactive) | > 100 µM (inactive) | 84.5 µM (inactive) | > 100 µM (inactive) | > 100 µM (inactive) | > 100 µM (inactive) | 84.9 µM (inactive) | > 100 µM | > 100 µM (inactive) |
| C=C(Cl)C(Cl)(CBr)CCC(Cl)C(C)C (stereo not drawn) | 0.222 µM (active) | 30 µM (inactive) | 1.77 µM (inactive) | 13.7 µM (inactive) | 14.3 µM (inactive) | 1.98 µM (inactive) | 1.37 µM (inactive) | 2.47 µM (inactive) | > 39.9 µM (inactive) | 4.22 µM (inactive) | 9.31 µM (inactive) | 26.9 µM (inactive) | 3.08 µM (inactive) | 0.619 µM (active) | 2.94 µM (inactive) | 30.8 µM (inactive) | 5.46 µM | 22.2 µM (inactive) |
| O=C1N(CN2CCOCC2)CN(CN2CCOCC2)C(=O)N1Cc1ccccc1 | 20.3 µM (inactive) | 37.1 µM (inactive) | 29.2 µM (inactive) | 17.9 µM (inactive) | 21.6 µM (inactive) | 32.6 µM (inactive) | 22.8 µM (inactive) | 22 µM (inactive) | 20.1 µM (inactive) | 30.9 µM (inactive) | 24.5 µM (inactive) | 28.7 µM (inactive) | 22.2 µM (inactive) | 16.3 µM (inactive) | 28.1 µM (inactive) | 24 µM (inactive) | 27.6 µM | 19.2 µM (inactive) |
| COc1ccc(-c2nc3ccccc3c(=S)n2OC(C)=O)cc1 | 2.55 µM (inactive) | 7.85 µM (inactive) | 5.9 µM (inactive) | 1.95 µM (inactive) | 8.57 µM (inactive) | 1.05 µM (active) | 1.91 µM (inactive) | 4.63 µM (inactive) | 1.15 µM (inactive) | > 25 µM (inactive) | 0.143 µM (active) | 1.5 µM (inactive) | 2.8 µM (inactive) | > 25 µM (inactive) | 1.91 µM (inactive) | 0.836 µM (active) | 0.755 µM | 4.98 µM (inactive) |
